Measurements: patent US6737383B1, “Herbicidal oxadiazolidines” (priority 1999, dated 2004)

Experiments:
wild oat = assay: Test B pre/postemergence wild oat; format: in vivo, Avena fatua
Summary of the method: (§1)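 Response is a visual 0-to-10 score relative to untreated plants, where 0 means no effect and 10 means complete control, taken twelve to sixteen days after application. Treatments went onto soil at planting and onto foliage of 1- to 4-leaf plants, using a surfactant-containing non-phytotoxic solvent.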

velvetleaf = assay: Test B pre/postemergence velvetleaf; format: in vivo, Abutilon theophrasti
Summary of the method: as §1

rape = assay: Test B pre/postemergence rape; format: in vivo, Brassica napus
Summary of the method: as §1

wheat = assay: Test B pre/postemergence wheat; format: in vivo, Triticum aestivum
Summary of the method: as §1

corn = assay: Test B pre/postemergence corn; format: in vivo, Zea mays
Summary of the method: as §1

soybean = assay: Test B pre/postemergence soybean; format: in vivo, Glycine max
Summary of the method: as §1

purple nutsedge = assay: Test B pre/postemergence purple nutsedge; format: in vivo, Cyperus rotundus; conditions: Postemergence
Summary of the method: as §1

cocklebur = assay: Test B pre/postemergence cocklebur; format: in vivo, Xanthium strumarium
Summary of the method: as §1

duck salad = assay: Test B flood test duck salad; format: in vivo, Heteranthera limosa
Summary of the method: (§2)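 Each value is a visual injury score relative to controls, with 10 meaning complete control and 0 no effect. Evaluation took place twelve to sixteen days after the 2-leaf-stage plants were treated and kept in the greenhouse.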

rice = assay: Test B flood test rice; format: in vivo, Oryza sativa
Summary of the method: as §2

giant foxtail = assay: Test B pre/postemergence giant foxtail; format: in vivo, Setaria faberii
Summary of the method: as §1

bedstraw = assay: Test B pre/postemergence bedstraw; format: in vivo, Galium aparine
Summary of the method: as §1

smallflower flatsedge = assay: Test B flood test smallflower flatsedge; format: in vivo, Cyperus difformis
Summary of the method: as §2

pigweed = assay: Test B pre/postemergence pigweed; format: in vivo, Amaranthus retroflexus
Summary of the method: as §1

surinam grass = assay: Test B pre/postemergence surinam grass; format: in vivo, Brachiaria decumbens
Summary of the method: as §1

sugar beet = assay: Test B pre/postemergence sugar beet; format: in vivo, Beta vulgaris
Summary of the method: as §1

[1] = Preemergence, Rate 62 g/ha, scale of 0 to 10 where 0 is no effect and 10 is complete control
[2] = Preemergence, Rate 250 g/ha, scale of 0 to 10 where 0 is no effect and 10 is complete control
[3] = Preemergence, Rate 500 g/ha, scale of 0 to 10 where 0 is no effect and 10 is complete control
[4] = Rate 62 g/ha, Postemergence, scale of 0 to 10 where 0 is no effect and 10 is complete control
[5] = Rate 125 g/ha, Postemergence, scale 0 to 10
[6] = Rate 125 g/ha, Preemergence, scale of 0 to 10 where 0 is no effect and 10 is complete control
[7] = Rate 500 g/ha, Postemergence, scale 0 to 10, 0 no effect, 10 complete control
[8] = Rate 62 g/ha, headed Pre-emergence (flood test species), scale 0 to 10 (0 no effect, 10 complete control)
[9] = Rate 125 g/ha, Pre-emergence, flood test species, scale 0 to 10 where 0 is no effect and 10 is complete control
[10] = Rate 250 g/ha, Pre-emergence, flood-test species, scale 0 to 10, 0 is no effect, 10 is complete control
[11] = Rate 500 g/ha, Pre-emergence, flood test species, scale 0 to 10 (0 no effect, 10 complete control)

COCCOCn1c(=O)on(C(=O)N(c2ccc(F)cc2)C(C)C)c1=O [Compound 220]
Wild oats plant response rating (wild oat; [1]): 3
Wild oats plant response rating (wild oat; [2]): 7
Plant response rating, Wild oats (wild oat; [3]): 8
Wild oats plant response rating (wild oat; [4]): 0
Wild oats plant response rating (wild oat; [5]): 0
Wild oats plant response rating (wild oat; [6]): 5
Plant response rating (0 to 10; 0 is no effect, 10 is complete control), Wild oats (wild oat; Rate 250 g/ha, Postemergence): 2
Wild oats plant response rating (wild oat; [7]): 2
Velvetleaf plant response rating (velvetleaf; [1]): 1
Velvetleaf plant response rating (velvetleaf; [2]): 4
Plant response rating, Velvetleaf (velvetleaf; [3]): 8
Velvetleaf plant response rating (velvetleaf; [4]): 0
Velvetleaf plant response rating (velvetleaf; [5]): 0
Velvetleaf plant response rating (velvetleaf; [6]): 3
Plant response rating (0 to 10; 0 is no effect, 10 is complete control), Velvetleaf (velvetleaf; Rate 250 g/ha, Postemergence): 2
Velvetleaf plant response rating (velvetleaf; [7]): 2
Rape plant response rating (rape; [1]): 1
Rape plant response rating (rape; [2]): 8
Plant response rating, Rape (rape; [3]): 8
Rape plant response rating (rape; [4]): 0
Rape plant response rating (rape; [5]): 0
Rape plant response rating (rape; [6]): 6
Plant response rating (0 to 10; 0 is no effect, 10 is complete control), Rape (rape; Rate 250 g/ha, Postemergence): 3
Rape plant response rating (rape; [7]): 4
Wheat plant response rating (wheat; [1]): 6
Wheat plant response rating (wheat; [2]): 8
Plant response rating, Wheat (wheat; [3]): 8
Wheat plant response rating (wheat; [4]): 3
Wheat plant response rating (wheat; [5]): 4
Wheat plant response rating (wheat; [6]): 7
Plant response rating (0 to 10; 0 is no effect, 10 is complete control), Wheat (wheat; Rate 250 g/ha, Postemergence): 6
Wheat plant response rating (wheat; [7]): 6
Corn plant response rating (corn; [1]): 0
Corn plant response rating (corn; [2]): 5
Plant response rating, Corn (corn; [3]): 7
Corn plant response rating (corn; [4]): 0
Corn plant response rating (corn; [5]): 2
Corn plant response rating (corn; [6]): 3
Plant response rating (0 to 10; 0 is no effect, 10 is complete control), Corn (corn; Rate 250 g/ha, Postemergence): 6
Corn plant response rating (corn; [7]): 6
Soybean plant response rating (soybean; [1]): 0
Soybean plant response rating (soybean; [2]): 0
Plant response rating, Soybean (soybean; [3]): 3
Soybean plant response rating (soybean; [4]): 5
Soybean plant response rating (soybean; [5]): 5
Soybean plant response rating (soybean; [6]): 0
Plant response rating (0 to 10; 0 is no effect, 10 is complete control), Soybean (soybean; Rate 250 g/ha, Postemergence): 7
Soybean plant response rating (soybean; [7]): 7
Nutsedge plant response rating (purple nutsedge; Rate 62 g/ha, scale of 0 to 10 where 0 is no effect and 10 is complete control): 0
Nutsedge plant response rating (purple nutsedge; Rate 125 g/ha, scale 0 to 10): 0
Plant response rating (0 to 10; 0 is no effect, 10 is complete control), Nutsedge (purple nutsedge; Rate 250 g/ha): 0
Nutsedge plant response rating (purple nutsedge; Rate 500 g/ha, scale 0 to 10, 0 no effect, 10 complete control): 0
Cocklebur plant response rating (cocklebur; [1]): 0
Plant response rating, Cocklebur (cocklebur; [3]): 5
Cocklebur plant response rating (cocklebur; [4]): 0
Cocklebur plant response rating (cocklebur; [5]): 0
Cocklebur plant response rating (cocklebur; [6]): 0
Plant response rating (0 to 10; 0 is no effect, 10 is complete control), Cocklebur (cocklebur; Rate 250 g/ha, Postemergence): 3
Cocklebur plant response rating (cocklebur; [7]): 5
Ducksalad plant response rating (duck salad; [8]): 0
Ducksalad plant response rating (duck salad; [9]): 0
Ducksalad plant response rating (duck salad; [10]): 0
Ducksalad plant response rating (duck salad; [11]): 0
Rice plant response rating (rice; [8]): 0
Rice plant response rating (rice; [9]): 0
Rice plant response rating (rice; [10]): 0
Rice plant response rating (rice; [11]): 0
Giant foxtail plant response rating (giant foxtail; [1]): 9
Giant foxtail plant response rating (giant foxtail; [2]): 10
Plant response rating, Giant foxtail (giant foxtail; [3]): 10
Giant foxtail plant response rating (giant foxtail; [4]): 5
Giant foxtail plant response rating (giant foxtail; [5]): 6
Giant foxtail plant response rating (giant foxtail; [6]): 9
Plant response rating (0 to 10; 0 is no effect, 10 is complete control), Giant foxtail (giant foxtail; Rate 250 g/ha, Postemergence): 8
Giant foxtail plant response rating (giant foxtail; [7]): 8
Bedstraw plant response rating (bedstraw; [1]): 0
Bedstraw plant response rating (bedstraw; [2]): 10
Plant response rating, Bedstraw (bedstraw; [3]): 10
Bedstraw plant response rating (bedstraw; [4]): 6
Bedstraw plant response rating (bedstraw; [5]): 8
Bedstraw plant response rating (bedstraw; [6]): 4
Plant response rating (0 to 10; 0 is no effect, 10 is complete control), Bedstraw (bedstraw; Rate 250 g/ha, Postemergence): 8
Bedstraw plant response rating (bedstraw; [7]): 9
S. Flatsedge plant response rating (smallflower flatsedge; [8]): 0
S. Flatsedge plant response rating (smallflower flatsedge; [9]): 0
S. Flatsedge plant response rating (smallflower flatsedge; [10]): 0
S. Flatsedge plant response rating (smallflower flatsedge; [11]): 0
Redroot pigweed plant response rating (pigweed; [1]): 0
Redroot pigweed plant response rating (pigweed; [2]): 8
Plant response rating, Redroot pigweed (pigweed; [3]): 10
Redroot pigweed plant response rating (pigweed; [4]): 0
Redroot pigweed plant response rating (pigweed; [5]): 1
Redroot pigweed plant response rating (pigweed; [6]): 2
Plant response rating (0 to 10; 0 is no effect, 10 is complete control), Redroot pigweed (pigweed; Rate 250 g/ha, Postemergence): 3
Redroot pigweed plant response rating (pigweed; [7]): 4
B. signalgrass plant response rating (surinam grass; [1]): 7
B. signalgrass plant response rating (surinam grass; Preemergence, Rate 250 g/ha, scale 0 to 10, 0 is no effect, 10 is complete control): 8
Plant response rating, B. signalgrass (surinam grass; [3]): 8
B. signalgrass plant response rating (surinam grass; [4]): 2
B. signalgrass plant response rating (surinam grass; Rate 125 g/ha, Postemergence, scale 0 (no effect) to 10 (complete control)): 7
B. signalgrass plant response rating (surinam grass; [6]): 7
Plant response rating (0 to 10; 0 is no effect, 10 is complete control), B. signalgrass (surinam grass; Rate 250 g/ha, Postemergence): 8
B. signalgrass plant response rating (surinam grass; [7]): 8
Sugarbeets plant response rating (sugar beet; [1]): 5
Sugarbeets plant response rating (sugar beet; [2]): 8
Plant response rating, Sugarbeets (sugar beet; [3]): 8
Sugarbeets plant response rating (sugar beet; [4]): 0
Sugarbeets plant response rating (sugar beet; [5]): 0
Sugarbeets plant response rating (sugar beet; [6]): 6
Plant response rating (0 to 10; 0 is no effect, 10 is complete control), Sugarbeets (sugar beet; Rate 250 g/ha, Postemergence): 2
Sugarbeets plant response rating (sugar beet; [7]): 2
